Results: patent US20120115896A1, “ISOGENIC HUMAN CELL LINES COMPRISING MUTATED CANCER ALLELES AND PROCESS USING THE CELL LINES” (priority 2008, published 2012)
Read-outs that look alike come from different tables or passages of the source.

Columns and labels:
[1] = test system: hTERT-HME1 WT, PIK3CA E545K and H1047R KI cells; assay: CFSE time-course of cell divisions by flow cytometry; format: cell-based, human; details: everolimus 500 nM, 7 days
Protocol: (A) CFSE-labelled cells were analyzed by flow cytometry at the indicated time-points (top panels). The maximum fluorescence intensity for all samples was recorded at day 0 (depicted in filled black). […] (B) Cells of the indicated genotype were incubated with everolimus 500 nM for 48 h, after which cell cycle was analyzed by flow cytometry. No increase of the subG1 apoptotic fraction of cells was observed upon treatment. Representative data from 3 independent experiments are shown.
For time-course experiments, on the initial day hTERT-HME1 cells were labelled with 3 μM CFSE (5-(and -6)-carboxyfluorescein diacetate, succinimidyl ester, Invitrogen C1157, Milan, Italy) in PBS in the dark for 30 minutes. After washing and recording baseline fluorescence, cells were plated in media containing 1% FBS and 2 ng/mL EGF, and treatment with everolimus was initiated, replenishing the drug on a daily basis. For cell cycle analysis, trypsinized cells were washed with PBS and cell nuclei DNA were stained with propidium iodide (PI) for at least 120 minutes using a commercial kit (DNA con 3, Consul T.S., Orbassano, Italy).
All fluorescence levels were detected by flow cytometry on a FACSCalibur (Becton Dickinson, Milan, Italy) and analyzed using CellQuest software. The number of events collected for each sample varied between 15,000 and 50,000. After doublets exclusion, an extended analysis of the DNA content and calculations of the percentage of cells in each phase of the cell cycle were performed on ModFit Lt software (Verity Software House, Topsham, Me.).

[2] = test system: phosphorylation of p70S6K, RpS6, AKT and MAPK in hTERT-HME1 WT and KI cells; assay: Biochemical effects of everolimus: immunoblot and ELISA of phospho-proteins; format: cell-based, human; details: for levels of phospho-MAPK: FIG. 16E
Protocol: (A, E) After 30 minutes' treatment with everolimus 500 nM, cells of the indicated genotype were lysed and immunoblotted with the anti-phospho-P70S6K, totalP70S6K, phospho-MAPK and total MAPK antibodies (B, C, D) The same lysates were also used for ELISA measurements of total AKT, phosphoAKT (Thr308), phosphoAKT (Ser473), total RpS6 and phosphoRpS6 levels. Numbers indicate the ratio of phosphorylated protein related to total protein levels and are normalized respect to the untreated (NT) hTERT-HME1 WT cells. DKI, Double Knock-In cells carrying both PIK3CA H1047R and KRAS G13D alleles.
SDS PAGE was performed using Invitrogen Precasted gels (Invitrogen Carlsbad, Calif.); western blotting transfer onto Hybond-C Extra membranes (Amersham, Amersham Biosciences, Uppsala, Sweden) was done following standard methods. The primary antibodies used for immunoblotting were: Anti-AKT (Cell Signaling, Technology, Danvers, Mass.); Anti-phospho-AKT S473 (Cell Signaling, Technology, Danvers, Mass.); Anti-Actin and Anti-Vinculin (Sigma-Aldrich, St. Louis, Mo.); Phospho-p44/42 Map kinase (Thr202/Tyr204) (Cell Signaling, Technology, Danvers, Mass.); Anti-phospho-EGFR Receptor (Tyr 1068) and Anti EGFR Receptor (Cell Signaling Technology, Danvers, Mass.).

[3] = test system: HKe-3 (HCT116-derivative KRAS WT clone) cells; assay: Proliferation under everolimus (72 hours) of cells infected with control or KRASG13D lentivirus; format: cell-based, human; details: KRAS G13D lentivirus, FIG. 17A
Protocol: (§1) Effect of everolimus (72 hours) on proliferation of HKe-3 (HCT116-derivative KRAS WT clone) (A) and ME-180 (B) cells infected with control or KRASG13D lentivirus.
(§2) The present inventors transduced HCT116-derivative clones that had only the KRAS WT allele (HKe-3), and the […] cancer cell line ME-180 (carrying PIK3CA E545K mutant and KRAS WT) with a lentiviral vector encoding for KRAS G13D cDNA.

ME-180 cells = assay: as above; format: cell-based, human; details: KRAS G13D lentivirus, FIG. 17B
Protocol: as §1, §2

[4] = test system: hTERT-HME1 DKI cells carrying PIK3CA (H1047R) and EGFR (delE746-A750)
[5] = test system: DLD-1 colorectal cancer cells and derivative clones (DKO-1, DKO-3, DKO-4, PIK3CA WT/mutant); assay: Viability (ATP assay) of DLD-1 cells and isogenic KRAS / PIK3CA derivative clones
Protocol: (§3) Results are expressed as percent of viability compared to cells treated with DMSO only ('control') and represent mean±SD of at least three independent observations.
(§4) After serial dilutions, 100 μl of drugs in serum free medium were added to cells with a multichannel pipette. Vehicle and medium-only containing wells were added as controls. Plates were incubated at 37° C. in 5% CO2 for 96 h, after which cell viability was assessed by ATP content using the CellTiter-Glo® Luminescent Assay (Promega Madison, Wis.).

[6] = test system: HCT 116 colorectal cancer cells and derivative clones (HKh-2, HKe-3, HK2-6, PIK3CA WT/mutant); assay: Viability (ATP assay) of HCT 116 cells and isogenic KRAS / PIK3CA derivative clones
Protocol: as §3, §4

[7] = test system: hTERT-HME1 cells carrying PIK3CA (E545K and H1047R) KI; assay: Drug assay: cell viability by ATP content (96 h) and Hoechst/propidium iodide staining, KI versus parental cells; ΔKI pharmarray analysis; details: hTERT-HME1

CO[C@H]1C[C@@H]2CC[C@@H](C)[C@@](O)(O2)C(=O)C(=O)N2CCCC[C@H]2C(=O)O[C@H]([C@H](C)C[C@@H]2CC[C@@H](OCCO)[C@H](OC)C2)CC(=O)[C@H](C)/C=C(\C)[C@@H](O)[C@@H](OC)C(=O)[C@H](C)C[C@H](C)/C=C/C=C/C=C/1C [everolimus, Everolimus]
slowing of cell growth (CFSE) ([1]; PIK3CA E545K): less pronounced | slowing of cell growth (CFSE) ([1]; PIK3CA H1047R): particularly evident | slowing of cell growth (CFSE) ([1]; WT cells): only minimal | levels of phospho-MAPK ([2]; KRAS G13D mutated cells): decreased | levels of phospho-MAPK ([2]; WT cells and PIK3CA H1047R mutated cells): essentially unchanged | phospho-AKT ([2]; all genotypes, everolimus 500 nM, 30 minutes, FIG. 16C, D): increase | p70S6K phosphorylation ([2]; everolimus 500 nM, 30 minutes, FIG. 16A): abrogated | activated phospho-RpS6 levels ([2]; everolimus 500 nM, 30 minutes, FIG. 16B): decrease | response after (re-)introduction of mutated KRAS versus control vector [3]: decreased response to the antiproliferative effects | response after introduction of mutated KRAS versus control vector (ME-180 cells): decreased response to the antiproliferative effects | ΔKI PIK3CA + EGFR ([4]; Log(M) −5.70): 0 | ΔKI PIK3CA + EGFR ([4]; Log(M) −6.70): 1.38 | ΔKI PIK3CA + EGFR ([4]; Log(M) −7.70): 0 | ΔKI PIK3CA + EGFR ([4]; Log(M) −8.70): 0.68 | ΔKI PIK3CA + EGFR ([4]; Log(M) −9.70): 0 | response of DLD-1 clones knock-out for the mutated KRAS D13 allele versus parental / DKO-1 ([5]; DKO-3 and DKO-4, FIG. 7C): more sensitive to everolimus | response of DLD-1 cells knock-out for the mutated PIK3CA K545 allele ([5]; FIG. 14B): as sensitive to everolimus as either the corresponding parental cells or a clone retaining only the PIK3CA mutated allele | response of HCT 116 parental and isogenic cells carrying mutated KRAS ([6]; FIG. 7B): equally resistant | response of HCT 116 derivative cells retaining only the KRAS WT allele ([6]; HKh-2 and HKe-3, FIG. 7B): sensitive to everolimus | response of HCT 116 cells in which PIK3CA H1047R had been deleted ([6]; all clones retain mutated KRAS, FIG. 14A): non-responsive to everolimus | pharmarray: differential response of PIK3CA mutated cells versus WT ([7]; FIG. 5G): affecting preferentially | antiproliferative effect on PIK3CA KI clones versus WT ([7]; wide range of concentrations, FIG. 6A): significant antiproliferative effect only in mutated cells
